Each block holds one compound with its values, some of them ahead of it. Where a SMILES comes first, the peptide text is derived from it. [ ]: non-standard residue; d: D form. The star is where a group is joined. Phe(4-Br) = N[C@@H](Cc1ccc(Br)cc1)C(=O)O; PEG6 = NCCOCCOCCOCCOCCOCCOCCC(=O)O; NMeL = CN[C@@H](CC(C)C)C(=O)O; Nle = CCCC[C@H](N)C(=O)O; Cbz = O=C(OCc1ccccc1)*; Aib = CC(C)(N)C(=O)O
Columns and labels:
[1] = biological target: T1, apelinR / human Gαi1 (Homo sapiens, UniProt P35414); test: ebBRET Gαi1 activation; type: cell-based; conditions: HEK293 cells transfected with apelinR, human Gαi1, Rap1GAP-RlucII, rGFP-CAAX; 10 min at 37 °C; mean ± SEM of 5 to 6 independent experiments; read-out: Gαi1 activation log EC50 (converted)
T1 sequence (P35414 1-380): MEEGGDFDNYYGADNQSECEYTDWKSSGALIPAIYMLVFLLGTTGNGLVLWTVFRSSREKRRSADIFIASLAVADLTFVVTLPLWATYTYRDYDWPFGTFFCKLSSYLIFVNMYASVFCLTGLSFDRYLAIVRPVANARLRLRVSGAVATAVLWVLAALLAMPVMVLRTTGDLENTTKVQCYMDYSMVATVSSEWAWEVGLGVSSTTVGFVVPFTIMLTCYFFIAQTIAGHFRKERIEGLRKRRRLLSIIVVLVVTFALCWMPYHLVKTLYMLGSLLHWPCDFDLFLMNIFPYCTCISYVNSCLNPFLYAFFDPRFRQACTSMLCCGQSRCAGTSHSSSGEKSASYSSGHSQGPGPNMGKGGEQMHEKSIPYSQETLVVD

[2] = biological target: T2, apelinR / human Gαi2 (Homo sapiens, UniProt P35414); test: ebBRET Gαi2 activation; type: cell-based; conditions: HEK293 cells transfected with apelinR, human Gαi2, Rap1GAP-RlucII, rGFP-CAAX; 10 min at 37 °C; mean ± SEM of 5 to 6 independent experiments; read-out: Gαi2 activation log EC50 (converted)
T2 sequence (P35414 1-380): T1 sequence (P35414 1-380)

[3] = biological target: T3, apelinR / β-arrestin1 (Homo sapiens, UniProt P35414); test: ebBRET β-arrestin1 recruitment; type: cell-based; conditions: HEK293 cells transfected with apelinR, β-arrestin1-RlucII, rGFP-CAAX; 10 min at 37 °C; mean ± SEM of 5 to 6 independent experiments; read-out: β-arr1 recruitment log EC50 (converted)
T3 sequence (P35414 1-380): T1 sequence (P35414 1-380)

[4] = biological target: T4, apelinR / β-arrestin2 (Homo sapiens, UniProt P35414); test: ebBRET β-arrestin2 recruitment; type: cell-based; conditions: HEK293 cells transfected with apelinR, β-arrestin2-RlucII, rGFP-CAAX; 10 min at 37 °C; mean ± SEM of 5 to 6 independent experiments; read-out: β-arr2 recruitment log EC50 (converted)
T4 sequence (P35414 1-380): T1 sequence (P35414 1-380)

[5] = cited from earlier work
Excerpt: The apelinergic system is a regulator in cardiovascular function and has shown positive effects on myocardial contractility, vasodilation,[4,5] angiogenesis[6] and heart rate.[7] Apelin promotes vasodilation by stimulating nitric oxide (NO) production, with apelin potentiating phosphorylation of Akt and eNOS,[5,8] while its signalling through Akt and ERK pathways also helps regulate cardiac contractility and provides protection against cardiac hypertrophy.[9] Apelin peptide hormones are derived from a 77-residue pre-propeptide and exist as three major isoforms, differentiated by their length, ...

[6] = system: rats; conditions: MI rat model; hypertension-induced cardiac dysfunction rat model; cited from earlier work
Excerpt: Another avenue being investigated is the use of small molecule as agonists for the apelinR, such as, Bristol Myers Squibb's BMS-986224,[26,27] Amgen's AMG986,[28] and Davenport's CMF-019.[29] […] In contrast, the two non peptidic apelinR agonists, BMS-98622 ...

[7] = system: wild-type male mice (C57BL/6); test: Blood pressure lowering assay in anesthetized mice; type: in vivo, mouse
Experimental: The metabolically stable apelin analogues from each isoform, CbzPEG6–NMeLeu17A2 and NMeLeu13A2 along with the small molecule agonist, BMS-986224 (0.5 μmol kg^−1 infusion during 5 min for each compound), were tested for their BP lowering activity in anesthetized wild-type male mice (C57BL/6, 24–30 g). […] In contrast, the hypotensive effect of CbzPEG6–NMeLeu17A2 was observed immediately after infusion. This analogue reduced mean arterial pressure (MAP) by approximately 50% during the experiment, with the effect sustained for more than 30 minutes post-administration. Apelin can act on the endothelial layer of vasculature, leading to systemic changes in blood pressure by increasing the synthesis of nitric oxide (NO).[5] The effect of CbzPEG6–NMeLeu17A2 on […], which decreases the […] resistance by increasing eNOS activation and NO production through the activation of the PI3K/Akt signalling pathway on endothelial cells like other apelin analogues we tested in the previous studies.[5,11]
The blood pressure measurement and apelin injection method has been described in our previous research.[43] During the blood pressure testing, mice aged 12–14 weeks were anesthetized with 1.5% isoflurane in oxygen and monitored throughout the experiment. The blood pressure was measured using a PV loop catheter (model 1.2F, Transonic) […] into the left carotid artery. The monitor system (LabScribe 2.0. Scisense) recorded aortic blood pressure and heart rate. After a 20-minute baseline measurement, CbzPEG6–NMeLeu17A2, NMeLeu13A2, RI13, RI13A2, RI17, RI17A2, and BMS-986224 (0.5 μmol […] body weight) were diluted in saline and consistently infused for 5 min via the right jugular vein. For BMS-986224, 0.1% DMSO was added to saline to help with dilution. Blood pressure was continuously recorded for 60 minutes post-infusion.
3. Effects of APJ agonists on blood pressure
Figure S3. Different effects of apelin analog and receptor agonist on blood pressure and ischemia-reperfusion injury. A) the effect of CbzPEG6–NMeLeu17A2 (n=3) on mean arterial blood pressure (MAP), B) the effect of apelin 13 analog, NMeLeu13A2, on MAP (n=4). The effect of apelin 13 analog reverse enantiomers, C) RI13 (n=4) and D) RI13A2 (n=4), on MAP. The effect of apelin 17 reverse enantiomers, E) RI17 (n=4) and F) RI17A2 (n=4) on MAP. G) The effect of small molecule apelin receptor agonist BMS-986224 on blood pressure (n=4). The MAP recording between 50 and 60 minutes has been averaged and compared with their controls (placebo (n=4)). The vehicle for BMS-986224 is 0.1% DMSO (n=3). The arrow indicates the time when analogs were introduced. Values mean ±SEM and ****P<0.0001, compared to the control group.
(1 picture or pasted object on this page, not shown here)

[8] = system: isolated mouse heart (ischemia–reperfusion injury); test: Ex vivo Langendorff heart perfusion with ischemia–reperfusion
[9] = system: phospho-Akt (Ser473); test: Western blot of Akt phosphorylation in left ventricular tissue after Langendorff ischemia–reperfusion; set-up: species or system mouse; conditions: n = 6 per group
Experimental: (§1) Fig. 4 Phosphorylation of Akt and ERK1/2 in left ventricular tissue following ischemia–reperfusion (IR) and treatment with apelin analogues. Protein lysates were analyzed by Western blotting and band intensities quantified by densitometry. (A) Representative Western blots for phosphorylated Akt (p-Akt, Ser473), total Akt, phosphorylated ERK1/2 (p-ERK1/2, Thr202/Tyr204), and total ERK1/2. (B) Quantification of p-Akt/Akt. (C) Quantification of p-ERK1/2/ERK1/2. Data are expressed in arbitrary units relative to aerobic perfusion (control) and presented as mean ± SEM (n = 6 per group). Statistical analysis was performed using one-way ANOVA with Tukey's multiple comparisons test. Symbol key: *p < 0.05 vs. aerobic perfusion; **p < 0.05 vs. aerobic perfusion and placebo; ***p < 0.05 vs. all other groups.
(§2) Protein expression was assessed by Western blot analysis. Left ventricular tissue samples from mice in the Langendorff protocol were homogenized in RIPA buffer supplemented with protease and phosphatase inhibitors (Thermo Fisher Scientific, Waltham, MA, USA). Lysates were cleared by centrifugation at 12 000 × g for 15 min at 4 °C, and protein concentration was determined by the BCA assay (Pierce, Thermo Fisher Scientific, Waltham, MA, USA). Equal amounts of protein (20 μg per lane) were separated on 10% SDS-polyacrylamide gels and transferred to polyvinylidene difluoride (PVDF) membranes (Immobilon-P, MilliporeSigma, Burlington, MA, USA). Membranes were blocked for 1 h at room temperature in 5% bovine serum albumin (BSA) prepared in Tris-buffered saline with 0.1% Tween-20 (TBST) and incubated overnight at 4 °C with the following primary antibodies (all from Cell Signaling Technology, Danvers, MA, USA): phospho-Akt (Ser473; #4060), total Akt (#2920), phospho-ERK1/2 (Thr202/Tyr204; #9101), and total ERK1/2 (#4696), each diluted 1 : 1000 in blocking buffer. […] Band intensities were quantified using ImageJ software (National Institutes of Health, Bethesda, MD, USA), and phosphorylated protein levels were normalized to their corresponding total protein.

[10] = system: phospho-ERK1/2 (Thr202/Tyr204); test: Western blot of ERK1/2 phosphorylation in left ventricular tissue after Langendorff ischemia–reperfusion; set-up: species or system mouse; conditions: n = 6 per group
Experimental: as §1, §2

Structure (SMILES): CCCC[C@H](NC(=O)[C@@H]1CCCN1C(=O)CNC(=O)[C@H](CCCCN)NC(=O)[C@H](Cc1c[nH]cn1)NC(=O)[C@H](CO)NC(=O)[C@H](CC(C)C)N(C)C(=O)[C@H](CCCNC(=N)N)NC(=O)[C@@H]1CCCN1C(=O)[C@H](CCCNC(=N)N)NC(=O)[C@@H]1CCC(=O)N1)C(=O)NC(C)(C)C(=O)N[C@@H](Cc1ccc(Br)cc1)C(=O)O [NMeLeu13A2]
EC50 [1]: 0.0339 nM | EC50 [2]: 0.0219 nM | EC50 [3]: 1.23 nM | EC50 [4]: 1.15 nM | half-life in human plasma [5]: ~4 h

Structure (SMILES): COc1cccc(OC)c1-n1c(NS(=O)(=O)[C@@H](C)[C@@H](OC(C)C)c2ncc(C)cn2)nnc1-c1cncc(C)c1 [AM-812337]
change in BP in a myocardial infarction (MI) rat model and a hypertension-induced cardiac dysfunction rat model (in words) [6]: do not induce any change in BP

Structure (SMILES): CCCC[C@H](NC(=O)[C@@H]1CCCN1C(=O)CNC(=O)[C@H](CCCCN)NC(=O)[C@H](Cc1c[nH]cn1)NC(=O)[C@H](CO)NC(=O)[C@H](CC(C)C)N(C)C(=O)[C@H](CCCNC(=N)N)NC(=O)[C@@H]1CCCN1C(=O)[C@H](CCCNC(=N)N)NC(=O)[C@H](CCC(N)=O)NC(=O)[C@H](CCCNC(=N)N)NC(=O)[C@H](CCCNC(=N)N)NC(=O)[C@H](Cc1ccccc1)NC(=O)[C@H](CCCCN)NC(=O)CCOCCOCCOCCOCCOCCOCCNC(=O)OCc1ccccc1)C(=O)NC(C)(C)C(=O)N[C@@H](Cc1ccc(Br)cc1)C(=O)O [CbzPEG6–NMeLeu17A2] ({Cbz-PEG6}-KFRRQRPR[NMeL]SHKGP[Nle][Aib][Phe(4-Br)]-OH; C-terminus assumed)
duration of hypotensive effect post-administration ([7]; 0.5 μmol kg^−1 infusion during 5 min, anesthetized C57BL/6 mice): more than 30 minutes | reduction of mean arterial pressure (MAP) ([7]; 0.5 μmol kg^−1 infusion during 5 min, anesthetized C57BL/6 mice, n = 3): approximately 50% | hypotensive effect (BP lowering activity, in words) ([7]; 0.5 μmol kg^−1 infusion during 5 min via jugular vein, anesthetized wild-type male C57BL/6 mice, compared to vehicle control): significant hypotensive effect | cardioprotective effect / cardiac function recovery after ischemia–reperfusion (LVDP, RPP, max dP/dt, min dP/dt; in words) ([8]; 1 μM in perfusion buffer for first 10 min of reperfusion after 30 min ischemia, compared to placebo, one-way ANOVA, Dunnett): significant cardioprotective effect and positive inotropic effect | cardiac recovery compared to the placebo treatment (left ventricle contractility, diastolic and systolic function) ([8]; 1 μM, 30 min ischemia, 40 min reperfusion, n = 7): nearly doubled | Akt phosphorylation (p-Akt/Akt), mean difference relative to control ([9]; left ventricular tissue after IR and 1 μM treatment, arbitrary units relative to aerobic perfusion (control), both p < 0.0001): −8.857 | Akt phosphorylation (p-Akt/Akt), mean difference versus NMeLeu13A2 ([9]; left ventricular tissue after IR, arbitrary units, p < 0.001): −4.018 | Akt phosphorylation compared with IR (in words) ([9]; left ventricular tissue after IR, one-way ANOVA, Tukey): robust enhancement | ERK1/2 phosphorylation (p-ERK1/2/ERK1/2), mean difference versus NMeLeu13A2 ([10]; left ventricular tissue after IR, arbitrary units, p < 0.0001): −1.991 | ERK1/2 phosphorylation compared with control (in words) ([10]; left ventricular tissue after IR, p < 0.01 (NMeLeu13A2), p < 0.0001 (CbzPEG6–NMeLeu17A2)): significantly increased ERK1/2 phosphorylation | ERK1/2 activation relative to IR (in words) ([10]; p < 0.0001): significant increase in ERK1/2 activation | t1/2 in human plasma [5]: > 18 h

Now from value to compound:

EC50 [1]: 1070 nM | EC50 [2]: 1150 nM
Structure (SMILES): CSCC[C@H](NC(=O)[C@@H]1CCCN1C(=O)CN)C(=O)N1CCC[C@H]1C(=O)N[C@@H](Cc1ccccc1)C(=O)O [apelin-5-mer C-terminal] (H-GPMPF-OH)

EC50 [1]: 490 nM | EC50 [2]: 347 nM
Structure (SMILES): CSCC[C@H](NC(=O)[C@@H]1CCCN1C(=O)CNC(=O)[C@H](CCCCN)NC(=O)[C@H](Cc1c[nH]cn1)NC(=O)[C@@H](N)CO)C(=O)N1CCC[C@H]1C(=O)N[C@@H](Cc1ccccc1)C(=O)O [apelin 8-mer C-terminal] (H-SHKGPMPF-OH)

From PMC12715805, “Screening apelin analogues and a small molecule agonist as effective cardiovascular therapeutics against reperfusion injury” (RSC Medicinal Chemistry, 2025)
